The values below come from EPA's ToxValDB 9.5 (doi:10.2903/j.efsa.2010.1779).

One data set concerns Typhlodromus pyri. The experiment in a line: LR50; higher = less toxic. As to conditions: acute; duration: 14 days; mortality.
Another data set has as its system Adalia sp. As to the kind of experiment: LR50; higher = less toxic. As to conditions: not reported; mortality.
The subject of another data set is Neomysis kadiakensis. As to conditions: acute; duration: 96 hours; mortality.
Another data set concerns Tagia sp. As to conditions: acute; duration: 14 days; mortality.
In another data set the test system is Oryctolagus sp. As to conditions: developmental; development.
The test system of a further data set is Bibionidae. As to conditions: chronic/long-term.
In another data set the test system is Mus musculus. As to conditions: chronic; duration: 18 months; histopathology: neoplastic.
In a further data set the test system is Apis mellifera. The following applies: acute; duration: 48 hours; oral; unspecified; mortality.

≈ marks a conversion by molar mass, not a printed value.

Take `CCOC(=O)NCCOc1ccc(Oc2ccccc2)cc1` [Fenoxycarb]: the values for the LR50 in the data set on Typhlodromus pyri and in the data set on Adalia sp. were greater than 463 g/ha and greater than 2.5 g/ha, respectively. In addition, the LD50 with Rattus norvegicus (acute, oral, mortality) is greater than 10000 mg/kg-day; with Apis mellifera it was greater than 204 µg/piece; in the data set with Anas platyrhynchos (acute, oral, unspecified, mortality), greater than 3000 mg/kg-day; in the data set on Colinus virginianus (acute, oral, mortality) it was greater than 7000 mg/kg-day. Also, in the data set with Rattus norvegicus (chronic), the NOAEC was found to be 40 mg/kg-day. Also, the NOAEL with Rattus norvegicus (subchronic, duration: 13 weeks, oral, organ weight) is 9.7 mg/kg-day; in the data set with Oryctolagus sp., 200 mg/kg-day. Moreover, the LC50 in the data set on Neomysis kadiakensis is 0.35 µg/mL (≈ 1.16 µM); with Tagia sp., greater than 850 mg/kg; in the data set on Oncorhynchus mykiss (acute, duration: 96 hours, mortality), 0.66 µg/mL (≈ 2.19 µM); in the data set with Daphnia magna (acute, duration: 48 hours, mortality) it was 0.5 µg/mL (≈ 1.66 µM); in the data set on Anas platyrhynchos (short-term, oral, feed, mortality), greater than 5880 mg/kg-day; with Colinus virginianus (acute, oral, diet, mortality) it was 1360 mg/kg-day. For the same compound, the NOEC in the data set on Bibionidae is 0.0028 mg/kg; in the data set on Bibionidae (duration: 28 days) it was 0.00075 mg/L; in the data set on Oncorhynchus mykiss (chronic/long-term, duration: 60 days, body weight), 0.048 mg/L; in the data set on Daphnia magna (chronic/long-term, duration: 21 days, reproduction), 1.6e-06 mg/L; with Anas platyrhynchos (reproductive) it was 17.7 mg/kg-day; in the data set with Colinus virginianus (reproduction developmental) it was 35.9 mg/kg-day. The lowest-observed-adverse-effect level (LOAEL) in the data set on Mus musculus was found to be 5.3 mg/kg-day.

By NOAEL is commonly meant the highest tested level that showed no adverse finding. What is called LOAEL is the lowest dose or exposure tested at which an adverse effect was seen.
